Data on 1 compound can be found in patent US20230002408A1, “HETEROARYLDIHYDROPYRIMIDINE DERIVATIVES AND METHODS OF TREATING HEPATITIS B INFECTIONS” (JANSSEN PHARMACEUTICA NV, priority 2019, published 2023).

The structures appear in SMILES notation.

One series relates to HBV. The series is described as follows: Anti-viral assay in HepG2.2.15 cells: HBV DNA in culture medium by qPCR. The settings on record: HepG2.2.15 cells, 6 days treatment, HBV DNA in culture medium by real-time PCR; read-out: EC50. In kind it is cell-based. How it is done:
(§1) HepG2.2.15 (the HepG2.2.15 cell line can be produced by transfection of the HepG2 cell line as described in Sells, Chen, and Acs 1987 (Proc. Natl. Acad. Sci. USA 84: 1005-1009), and the HepG2 cell line is available from ATCC® under number HB-8065™).
(§2) HepG2.2.15 cells were plated into 96-well plate in 2% FBS culture medium at the density of 40,000 cells/well and 5,000 cells/well for HBV inhibitory activity and cytotoxicity determination, respectively. After incubation at 37° C., 5% CO2 overnight, cells were treated with medium containing compounds for 6 days with medium and compounds refreshed after 3 days of treatment. Each compound was tested in a 1:3 serial dilutions at 8 different concentrations in triplicate. The highest concentration of the compounds was 10 uM or 1 uM for anti-HBV activity assay and 100 uM for cytotoxicity determination. Cell viability was determined by CCK-8 assay. After 6 days of compounds treatment, 20 μl CCK-8 reagents were added to each well of cytotoxicity assay plates. Cell plates were incubated at 37° C., 5% CO2 for 2.5 h. The absorbance at 450 nm wavelength and the absorbance at 630 nm wavelength as reference was measured.
The change of HBV DNA level induced by the compounds was assessed by quantitative real-time polymerase chain reaction (qPCR). Briefly, the HBV DNA in the culture medium was extracted using QlAamp 96 DNA Blood Kit according to the manual and then quantified by real-time PCR assay using the primers and probe in the table 1 below.
(§3) EC50 and CC50 values are calculated by the GRAPHPAD PRISM software.

In a further series the test system is HepG2.2.15 cells. As to the kind of experiment: Cytotoxicity determination in HepG2.2.15 cells (CCK-8 cell viability). Type of series: cell-based. The settings on record: 6 days treatment, CCK-8, highest concentration 100 uM. How it is done:
as §1, §2, §3

By EC50 is commonly meant the concentration that produces a half-maximal response. By CC50 is commonly meant the concentration giving 50% cytotoxicity. On to `CCOC(=O)C1=C(CN2CCO[C@H]3CN(CC(C)(C)C(=O)O)C[C@H]32)NC(c2nccs2)=N[C@H]1c1ccc(F)cc1Cl` (relative stereo) [Compound I-1A, 3-((4aR*,7aS*)-4-4(R*)-6-(2-chloro-4-fluorophenyl)-5-(ethoxycarbonyl)-2-(thiazol-2-yl)-3,6-dihydropyrimidin-4-yl)methyl)hexahydropyrrolo[3,4-b][1,4]oxazin-6(2H)-yl)-2,2-dimethylpropanoic acid], for which the EC50 in the series on HBV is 0.016 µM. In addition, it took 59.8 µM to reach half-maximal cytotoxicity with HepG2.2.15 cells (CC50).
